# From PMC4609000 (Chembiochem : a European journal of chemical biology, 2015)
# “Also recorded” adds a separate entry of the source. Where two headings read alike, the source gives them in different places.
# Assays:
# DXP synthase [1] = target: T1, DXP synthase (Escherichia coli, UniProt P77488); assay: DXP synthase inhibition, continuous spectrophotometric IspC-coupled assay; assay type: biochemical, E. coli; settings: for mode of inhibition with respect to D-GAP / mode of inhibition with respect to pyruvate: model discrimination analysis (AIC)
# [2] = Stability of inhibitors under the assay conditions; settings: HEPES pH 8.0, 37 °C, HPLC analysis, data not shown
# [3] = pH 8
# DXP synthase [4] = settings: cited from earlier work
# DXP synthase [5] = target: T1, DXP synthase; assay: Rapid dilution experiment; assay type: biochemical, E. coli; settings: pre-incubation 15 or 30 min
# DXP synthase [6] = target: T1, DXP synthase; assay: DXP synthase inhibitory activity in the presence of BME or ascorbic acid; assay type: biochemical, E. coli; settings: inhibitor 50 µM
# [7] = 13C NMR monitoring of oxime 8 at pH 8; assay type: physicochemical; settings: pH 8, 24 hours
# T1 sequence (P77488 whole entry): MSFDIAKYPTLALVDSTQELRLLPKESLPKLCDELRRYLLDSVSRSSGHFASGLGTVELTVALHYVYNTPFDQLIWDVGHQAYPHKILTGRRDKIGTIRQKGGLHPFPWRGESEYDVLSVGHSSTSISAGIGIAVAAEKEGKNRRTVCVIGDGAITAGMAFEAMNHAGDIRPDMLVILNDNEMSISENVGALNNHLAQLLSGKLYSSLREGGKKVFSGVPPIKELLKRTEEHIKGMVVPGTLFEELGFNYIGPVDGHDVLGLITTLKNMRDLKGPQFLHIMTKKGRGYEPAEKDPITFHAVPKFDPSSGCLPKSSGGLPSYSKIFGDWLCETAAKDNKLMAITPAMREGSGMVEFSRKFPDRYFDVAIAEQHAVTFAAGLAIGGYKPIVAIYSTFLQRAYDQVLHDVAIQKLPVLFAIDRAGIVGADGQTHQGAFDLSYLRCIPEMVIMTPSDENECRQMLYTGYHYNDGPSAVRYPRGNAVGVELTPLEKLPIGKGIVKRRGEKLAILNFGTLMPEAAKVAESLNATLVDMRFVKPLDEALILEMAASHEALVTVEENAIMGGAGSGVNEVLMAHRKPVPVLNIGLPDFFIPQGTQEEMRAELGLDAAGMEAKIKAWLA
smiles,measurement,setting,value
"CONCc1cc(O)c(O)cc1O.Cl [Compound 10, 5-((Methoxyamino)methyl)benzene-1,2,4-triol hydrochloride]",Ki,DXP synthase [1]; evaluated in the presence of ascorbic acid (2.0 mM),> 75 µM
same,stability under the conditions of the assay,[2],unstable
"CO/N=C/c1cc(F)c(F)cc1O [Compound 23, (E)-4,5-Difluoro-2-hydroxybenzaldehyde O-methyl oxime]",inhibitory activity,DXP synthase [1]; up to 100 µM,minimally active
"CO/N=C/c1cc(O)c(O)c(O)c1 [Compound 17, (E)-3,4,5-Trihydroxybenzaldehyde O-methyl oxime]",mode of inhibition with respect to D-GAP,DXP synthase [1],competitive
"O=Cc1cc(O)c(O)cc1O [Compound 6, 2,4,5-trihydroxybenzaldehyde]",stability under the conditions of the assay,[3],unstable
"O/N=C/c1cc(O)c(O)cc1O [Compound 7, (E)-2,4,5-Trihydroxybenzaldehyde oxime]",mode of inhibition with respect to D-GAP,DXP synthase [1],competitive
same,mode of inhibition with respect to pyruvate,DXP synthase [1],uncompetitive
"Oc1cc(O)c(/C=N/OCc2ccccc2)cc1O [Compound 9, (E)-2,4,5-Trihydroxybenzaldehyde O-benzyl oxime]",mode of inhibition with respect to pyruvate,DXP synthase [1],noncompetitive
"CN/N=C/c1cc(O)c(O)cc1O [Compound 11, (E)-5-((2-Methylhydrazono)methyl)benzene-1,2,4-triol]",stability under the conditions of the assay,[2],unstable
"O=C([O-])/C=N/OCCO/N=C/c1cc(O)c(O)cc1O.[Na+] [Compound 4, Sodium (1E,7E)-1-(2,4,5-trihydroxyphenyl)-3,6-dioxa-2,7-diazanona-1,7-dien-9-oate]",mode of inhibition with respect to D-GAP,DXP synthase [1],competitive
same,mode of inhibition with respect to pyruvate,DXP synthase [1],noncompetitive
"CO/N=C/c1cc(O)c(O)c(OC)c1 [Compound 18, (E)-3,4-Dihydroxy-5-methoxybenzaldehyde O-methyl oxime]",inhibition at 200 µM,DXP synthase [1],18%
"CO/N=C/c1cccc([N+](=O)[O-])c1O [Compound 21, (E)-2-Hydroxy-3-nitrobenzaldehyde O-methyl oxime]",Ki,DXP synthase [1],47.8 ± 8.4 µM
same,mode of inhibition with respect to D-GAP,DXP synthase [1],competitive
"Oc1cc(O)c(/C=N/OCCO/N=C/c2cc(O)c(O)cc2O)cc1O [Compound 5, (1E,1'E)-O,O'-(Ethane-1,2-diyl)bis(1-(2,4,5-trihydroxyphenyl)-2,4,5-trihydroxybenzaldehyde oxime)]",mode of inhibition with respect to D-GAP,DXP synthase [1],competitive
same,mode of inhibition with respect to pyruvate,DXP synthase [1],uncompetitive
"CO/N=C/c1cc(O)c(O)cc1F [Compound 22, (E)-2-Fluoro-4,5-dihydroxybenzaldehyde O-methyl oxime]",mode of inhibition with respect to D-GAP,DXP synthase [1],competitive
same,stability under the conditions of the assay,[3],unstable
CC1(C)C(=O)ON(Cc2ccccc2Cl)C1=O [Ketoclomazone],Ki,DXP synthase [4],75 µM
same,mode of inhibition against D-GAP,DXP synthase [4],noncompetitive
same,mode of inhibition with respect to pyruvate,DXP synthase [4],uncompetitive
CCCCOP(=O)(O)C(C)=O [Butyl Acetyl Phosphonate],Ki,DXP synthase [4],5.6 ± 0.8 µM
"CO/N=C/c1cc(O)c(O)cc1O [Compound 8, (E)-2,4,5-Trihydroxybenzaldehyde O-methyl oxime]",mode of inhibition with respect to pyruvate,DXP synthase [1],noncompetitive
same,time dependence of inhibitory activity,DXP synthase [5],not time-dependent
same,inhibitory activity in the presence of BME,DXP synthase [6]; BME 0.5 mM,abolished; also recorded: abolishes inhibitory activity
same,inhibitory activity in the presence of ascorbic acid,DXP synthase [6]; ascorbic acid 2.0 mM,does not abolish inhibitory activity
same,quinone species observed by 13C NMR,[7],no observable quinone species
